Assay results reported in the supplement of paper PMC11061612.

Columns and labels:
[1] = test system: CA46 (Burkitt's Lymphoma); experiment: combination Emax (second highest fraction inhibited in the dose matrix, 72 h); higher = more inhibition; extreme values may be limits of the assay
Summary of the method: (§1)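 Cell lines grown in DMEM/F12 or RPMI with 10% FBS were plated in 1536-well plates and held 24 hours at 37°C, 5% CO2 before 72 hours of exposure to two-drug dose matrices, with DMSO typically at 0.2%. CellTiter-Glo 2.0 luminescence gave viability, which was converted to inhibition. Vehicle wells were set to 0 and blank wells to 1. Combination Emax is the second-highest inhibition in the matrix, and Bliss excess is the observed combination effect minus the expected EA + EB − EA·EB, where EA and EB are the single-agent effects.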

[2] = test system: G-402 (Other Solid Carcinomas); experiment: as above
Summary of the method: as §1

[3] = test system: GCT (Other Solid Carcinomas); experiment: as above
Summary of the method: as §1

HCC70 (Breast Carcinoma) = experiment: as above
Summary of the method: as §1

769-P (Kidney Carcinoma) = experiment: as above
Summary of the method: as §1

[4] = test system: TE-10 (Esophageal Squamous Cell Carcinoma); experiment: as above
Summary of the method: as §1

[5] = test system: EPLC-272H (Other Solid Carcinomas); experiment: as above
Summary of the method: as §1

[6] = test system: SW620 (Colorectal Carcinoma); experiment: as above
Summary of the method: as §1

[7] = test system: huH-1 (Hepatocellular Carcinoma); experiment: as above
Summary of the method: as §1

[8] = test system: SK-HEP-1 (Hepatocellular Carcinoma); experiment: as above
Summary of the method: as §1

[9] = test system: 22RV1 (Prostate Carcinoma); experiment: as above
Summary of the method: as §1

[10] = test system: TE-10 (Esophageal Squamous Cell Carcinoma); experiment: Bliss excess, mean over the matrix (fraction); higher = more synergy
Summary of the method: as §1

[11] = test system: NCI-H841 (Small Cell Lung Carcinoma); experiment: combination Emax (second highest fraction inhibited in the dose matrix, 72 h); higher = more inhibition; extreme values may be limits of the assay
Summary of the method: as §1

MKN1 (Gastric Carcinoma) [12] = experiment: as above
Summary of the method: as §1

[13] = test system: NCI-H841 (Small Cell Lung Carcinoma); experiment: Bliss excess, mean over the matrix (fraction); higher = more synergy
Summary of the method: as §1

MKN1 (Gastric Carcinoma) [14] = experiment: as above
Summary of the method: as §1
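For Bliss excess, mean over the matrix in this document: after 72 h of two-drug dosing.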

| Structure (SMILES) | combination Emax [1] | combination Emax [2] | combination Emax [3] | combination Emax (HCC70 (Breast Carcinoma)) | combination Emax (769-P (Kidney Carcinoma)) | combination Emax [4] | combination Emax [5] | combination Emax [6] | combination Emax [7] | combination Emax [8] | combination Emax [9] | Bliss excess [10] | combination Emax [11] | combination Emax (MKN1 (Gastric Carcinoma) [12]) | Bliss excess [13] | Bliss excess (MKN1 (Gastric Carcinoma) [14]) |
| --- | --- | --- | --- | --- | --- | --- | --- | --- | --- | --- | --- | --- | --- | --- | --- | --- |
| CN(C)CCCOc1ccc(-c2ccc3ncc4c(c3c2)n(C2CCOCC2)c(=O)n4C)cn1 [AZD0156] + C=CCn1c(=O)c2cnc(Nc3ccc(N4CCN(C)CC4)cc3)nc2n1-c1cccc(C(C)(C)O)n1 [AZD1775] (first compound max 1 µM, partner max 1 µM) | 0.636 | 0.363 | 0.413 | 0.542 | 0.766 | 0.808 | 0.771 | 0.495 | 0.592 | 0.469 | 0.346 | -0.033 | – | – | – | – |
| CN(C)CCCOc1ccc(-c2ccc3ncc4c(c3c2)n(C2CCOCC2)c(=O)n4C)cn1 [AZD0156] + CCN(CCO)CCCOc1ccc2c(Nc3cc(CC(=O)Nc4cccc(F)c4)[nH]n3)ncnc2c1 [AZD2811] (first compound max 1 µM, 7x7, partner max 1 µM) | 0.291 | 0.532 | 0.161 | 0.604 | 0.0806 | 0.332 | 0.415 | 0.158 | 0.317 | 0.255 | 0.267 | 0.0126 | – | – | – | – |
| CN(C)CCCOc1ccc(-c2ccc3ncc4c(c3c2)n(C2CCOCC2)c(=O)n4C)cn1 [AZD0156] + C[C@@H]1COCCN1C2=NC(=NC(=C2)C3(CC3)[S@](=N)(=O)C)C4=C5C=CNC5=NC=C4 [AZD6738] (first compound max 1 µM, 7x7, partner max 10 µM) | 0.746 | 0.534 | 0.231 | 0.829 | 0.84 | 0.814 | 0.903 | 0.566 | 0.821 | 0.391 | 0.524 | -0.0075 | – | – | – | – |
| C=CCn1c(=O)c2cnc(Nc3ccc(N4CCN(C)CC4)cc3)nc2n1-c1cccc(C(C)(C)O)n1 [AZD1775] + C[C@@H]1COCCN1C2=NC(=NC(=C2)C3(CC3)[S@](=N)(=O)C)C4=C5C=CNC5=NC=C4 [AZD6738] (first compound max 1 µM, partner max 10 µM) | 0.739 | 0.674 | 0.552 | 0.898 | 0.847 | 0.901 | 0.882 | 0.83 | 0.794 | 0.65 | 0.636 | -0.0029 | – | – | – | – |
| C=CCn1c(=O)c2cnc(Nc3ccc(N4CCN(C)CC4)cc3)nc2n1-c1cccc(C(C)(C)O)n1 [AZD1775] + O=C(c1cc(Cc2n[nH]c(=O)c3ccccc23)ccc1F)N1CCN(C(=O)C2CC2)CC1 [Olaparib] (first compound max 1 µM, partner max 10 µM) | 0.53 | 0.41 | 0.501 | 0.56 | 0.716 | 0.858 | 0.761 | 0.603 | 0.634 | 0.462 | 0.323 | -0.0196 | – | – | – | – |
| CCN(CCO)CCCOc1ccc2c(Nc3cc(CC(=O)Nc4cccc(F)c4)[nH]n3)ncnc2c1 [AZD2811] + C=CCn1c(=O)c2cnc(Nc3ccc(N4CCN(C)CC4)cc3)nc2n1-c1cccc(C(C)(C)O)n1 [AZD1775] (first compound max 1 µM, partner max 1 µM) | 0.489 | 0.526 | 0.292 | 0.589 | 0.632 | 0.737 | 0.803 | 0.461 | 0.696 | 0.355 | 0.234 | 0.0176 | – | – | – | – |
| CCN(CCO)CCCOc1ccc2c(Nc3cc(CC(=O)Nc4cccc(F)c4)[nH]n3)ncnc2c1 [AZD2811] + C[C@@H]1COCCN1C2=NC(=NC(=C2)C3(CC3)[S@](=N)(=O)C)C4=C5C=CNC5=NC=C4 [AZD6738] (first compound max 1 µM, 7x7, partner max 10 µM) | 0.482 | 0.606 | 0.242 | 0.797 | 0.85 | 0.794 | 0.849 | 0.417 | 0.712 | 0.42 | 0.566 | -0.0869 | – | – | – | – |
| CCN(CCO)CCCOc1ccc2c(Nc3cc(CC(=O)Nc4cccc(F)c4)[nH]n3)ncnc2c1 [AZD2811] + O=C(c1cc(Cc2n[nH]c(=O)c3ccccc23)ccc1F)N1CCN(C(=O)C2CC2)CC1 [Olaparib] (first compound max 1 µM, 7x7, partner max 10 µM) | 0.248 | 0.605 | 0.328 | 0.675 | 0.144 | 0.4 | 0.204 | 0.281 | 0.415 | 0.362 | 0.337 | 0.0515 | – | – | – | – |
| CN(CCO)CC[C@H](CSc1ccccc1)Nc1ccc(S(=O)(=O)NC(=O)c2ccc(N3CCC([C@@H](O)c4ccccc4-c4ccc(Cl)cc4)CC3)cc2)cc1S(=O)(=O)C(F)(F)F [AZD4320] + CN(C)CCCOc1ccc(-c2ccc3ncc4c(c3c2)n(C2CCOCC2)c(=O)n4C)cn1 [AZD0156] (first compound max 1 µM, 7x7, partner max 1 µM) | 0.349 | 0.401 | 0.239 | 0.281 | 0.719 | 0.281 | 0.439 | 0.366 | 0.122 | 0.325 | 0.385 | -0.0208 | – | – | – | – |
| Cc1c2c(nn1C)CSCc1cc(n(C)n1)CSc1cc(c3ccccc3c1)OCCCc1c(C(=O)O)n(C)c3c-2c(Cl)ccc13 [AZD5991] + C1CN(CCC1(C(=O)N[C@@H](CCO)C2=CC=C(C=C2)Cl)N)C3=NC=NC4=C3C=CN4 [Capivasertib] (first compound max 1 µM, 7x7, partner max 3 µM) | 0.351 | 0.984 | 0.438 | 0.99 | 0.146 | 0.901 | 0.932 | 0.16 | 0.227 | 0.334 | 0.706 | 0.0484 | – | – | – | – |
| Cc1c2c(nn1C)CSCc1cc(n(C)n1)CSc1cc(c3ccccc3c1)OCCCc1c(C(=O)O)n(C)c3c-2c(Cl)ccc13 [AZD5991] + C=CCn1c(=O)c2cnc(Nc3ccc(N4CCN(C)CC4)cc3)nc2n1-c1cccc(C(C)(C)O)n1 [AZD1775] (first compound max 1 µM, partner max 1 µM) | 0.633 | 0.965 | 0.556 | 0.951 | 0.858 | 0.942 | 0.971 | 0.65 | 0.552 | 0.35 | 0.453 | -0.0235 | – | – | – | – |
| CC(=O)c1c(C)c2cnc(Nc3ccc(N4CCNCC4)cn3)nc2n(C2CCCC2)c1=O [Palbociclib] + Cn1cnc2c(F)c(Nc3ccc(Br)cc3Cl)c(C(=O)NOCCO)cc21 [Selumetinib] (first compound max 10 µM, 7x7, partner max 10 µM) | 0.345 | 0.462 | 0.405 | 0.269 | 0.809 | – | 0.7 | 0.72 | 0.167 | 0.372 | 0.463 | – | 0.16 | 0.332 | -0.0352 | -0.0001 |
| CCc1c2c(nc3ccc(O)cc13)-c1cc3c(c(=O)n1C2)COC(=O)[C@]3(O)CC [SN-38] + O=C(c1cc(Cc2n[nH]c(=O)c3ccccc23)ccc1F)N1CCN(C(=O)C2CC2)CC1 [Olaparib] (first compound max 0.3 µM, 7x7, partner max 10 µM) | – | 0.829 | 0.753 | 0.455 | 0.734 | 0.752 | 0.856 | 0.822 | 0.794 | 0.665 | 0.697 | 0.0939 | – | – | – | – |
| Cn1cnc2c(F)c(Nc3ccc(Br)cc3Cl)c(C(=O)NOCCO)cc21 [Selumetinib] + C=CCn1c(=O)c2cnc(Nc3ccc(N4CCN(C)CC4)cc3)nc2n1-c1cccc(C(C)(C)O)n1 [AZD1775] (first compound max 10 µM, partner max 1 µM) | 0.635 | 0.483 | 0.384 | 0.562 | 0.904 | – | 0.857 | 0.731 | 0.48 | 0.315 | 0.406 | – | 0.217 | 0.782 | -0.0536 | -0.0326 |
| Cn1cnc2c(F)c(Nc3ccc(Br)cc3Cl)c(C(=O)NOCCO)cc21 [Selumetinib] + CC(C)n1c(=O)n(C)c2cnc3cc(F)c(-c4ccc(OCCCN5CCCCC5)nc4)cc3c21 [AZD1390] (first compound max 10 µM, 7x7, partner max 0.3 µM) | 0.306 | 0.222 | 0.287 | 0.268 | 0.294 | – | 0.651 | 0.615 | 0.107 | 0.193 | 0.307 | – | 0.0728 | 0.182 | -0.0529 | -0.0173 |
| Cn1cnc2c(F)c(Nc3ccc(Br)cc3Cl)c(C(=O)NOCCO)cc21 [Selumetinib] + CCN(CCO)CCCOc1ccc2c(Nc3cc(CC(=O)Nc4cccc(F)c4)[nH]n3)ncnc2c1 [AZD2811] (first compound max 10 µM, 7x7, partner max 1 µM) | 0.312 | 0.578 | 0.384 | 0.603 | 0.356 | – | 0.634 | 0.863 | 0.307 | 0.362 | 0.383 | – | 0.332 | 0.538 | -0.0341 | 0.002 |
| Cn1cnc2c(F)c(Nc3ccc(Br)cc3Cl)c(C(=O)NOCCO)cc21 [Selumetinib] + C[C@@H]1COCCN1C2=NC(=NC(=C2)C3(CC3)[S@](=N)(=O)C)C4=C5C=CNC5=NC=C4 [AZD6738] (first compound max 10 µM, 7x7, partner max 10 µM) | 0.579 | 0.645 | 0.373 | 0.778 | 0.888 | – | 0.902 | 0.781 | 0.537 | 0.223 | 0.526 | – | 0.389 | 0.782 | -0.0212 | 0.0183 |
